Laboratory results taken from ChEMBL document CHEMBL3507680, “University of Dundee, Gates Library screen for HepG2 cell viability”.

Test: Human HepG2 cell viability assay in 384 well format
Assay type: toxicity, cell-based
Set-up: dose 125 nL, time 70.5 hour; cytotoxicity at 70.5 h: concentration not given beside the values
Details: HepG2 cells, read-out: Inhibition

SMILES	cytotoxicity at 70.5 h [%]
Cc1nc(Nc2nnc(C)s2)cc(C2CCCN2C2CCCC2)n1 (stereo unspecified)	-5.26
CSCCC(NC(=O)c1ccco1)C(=O)N(C)Cc1ccsc1 (stereo unspecified)	-4.71
O=C1NCC(c2ccc(Cl)cc2)Cc2[nH]c(CCN3CCOCC3)nc21 (stereo unspecified)	-12.7
O=C(Nc1ccccc1F)N(CCO)Cc1ccsc1	31.8
CC(=O)N1CCN(C(=O)CN(C)c2ccc(Cl)cn2)CC1	-10.3
CC(C)CC(NC(=O)c1ccco1)c1nc2cccnc2n1C (stereo unspecified)	-1.92
CC(C)c1ccc(OCCC(=O)N2CCC(CC(N)=O)CC2)cc1	-3.31
COc1ccc2cc(CN(C)CCc3cn[nH]c3)c(=O)[nH]c2c1	-6.43
Cc1ccccc1CSc1ncc(Br)c(C(=O)O)n1	-5.71
CNC(=O)C(C)CN(C)C(=O)Nc1ccc(F)c(-n2cccc2)c1 (stereo unspecified)	0.178
CNC(=O)c1cc2ccccc2n1C	16.4
COC(CNC(=O)c1cc(C)on1)c1ccccc1C (stereo unspecified)	-2.28
CCC(=O)c1ccc(OCC(=O)N2CCNCC2C(=O)NC2CC2)cc1 (stereo unspecified)	-9.05
Cc1cc(N2CCCN(c3ccnc(C)c3)CC2)ccn1	-7.78
CNC(=O)c1ccc(C(=O)N2CCCC(n3nc(C)cc3C)C2)cn1 (stereo unspecified)	-12.8
CCCN1CCN(CC(O)c2ccc(OC(F)(F)F)cc2)CC1 (stereo unspecified)	-0.084
CCn1cnnc1CN(C)C(=O)c1cc(COc2cccc(F)c2)[nH]n1	10.8
CCS(=O)(=O)N1CCC2(CCCN(Cc3ccc(F)c(F)c3)C2=O)C1 (stereo unspecified)	1.7
CO[C@@H]1CCN(Cc2nccs2)C[C@@H]1Cc1cccc(C)c1	-3.84
O=S(=O)(N1CCCCCC1)N1CCc2sccc2C1	-5.4
Cc1nccn1CCN(C)c1cc(C(C)C)nc2ccnn12	-2.26
Cc1ccc(CNCCCNS(C)(=O)=O)c(Br)c1	4
Cc1ccc2c(c1)C(NCc1nnc3n1CCCCC3)CCCO2 (stereo unspecified)	11.8
Cc1cc(C)n(Cc2cc(C(=O)N3CCCCC3c3nccs3)n[nH]2)n1 (stereo unspecified)	8.98

SMILES	cytotoxicity at 70.5 h [%]
Cc1cnc(N2CC3(CCN(C(=O)c4cccnc4)C3)C2)nc1	-4.83
CCOc1ccc(NCC(=O)NCC(=O)N2CCCC2)c(C(F)(F)F)c1	-11.7
CCN1CCN(CCCNc2ncccn2)CC1	9.52
CN(CC(=O)N1CCCC1)C(=O)c1cccn1CCc1ccccc1	-7.1
CC(C)c1nnc(NC(=O)N(C)Cc2ccncc2)s1	-9.39
CC(=O)N1CCC2(CC1)c1ncc(-c3ccc(F)cc3)n1CCN2C	-3.18
CSc1ccc(CNC(=O)Cc2c(C)n[nH]c2C)cc1	-6.16
OCCN(Cc1ccno1)Cc1cc(Br)ccc1F	-14.1
O=C(c1ccc(F)cc1)N1CCC2(CC1)CC(N1CCOCC1)C2	-13.1
CC(C)N(C)Cc1n[nH]c2c1CCN(C(=O)c1ccc[nH]1)C2	21
CC(C)c1nnc2n1CCN(C(=O)c1ccc(S(C)(=O)=O)cc1)C2	-5.36
CC(C)c1nc2c(n1C)CCN(CC(=O)Nc1ccc(Cl)cn1)C2	-14.9
C[C@@H]1CN(c2nc3c(cc2C(N)=O)CCC3)C[C@]1(C)O	-15
NC(=O)CCCNC(=O)CCc1cc(Br)cs1	-5.18
Fc1ccc(-c2cc(NCCC3CCOC3)n3nccc3n2)cc1 (stereo unspecified)	0.148
CC(C)C(C(=O)N1CCCN(c2cccnn2)CC1)n1cncn1 (stereo unspecified)	4.13
Cc1ccsc1[C@@H]1CCN(C(=O)CCc2n[nH]c(C)c2C)C[C@H]1O	0.289
CCOCCNS(=O)(=O)c1ccc2c3c1CCCN3C(=O)CO2	33.6
Cc1nnc(C(C)N2CCN(Cc3ccc(C(F)(F)F)cc3)CC2)o1 (stereo unspecified)	-1.82
CCN1C(=O)CC(c2cnn(C)c2)C12CCN(C(=O)c1ccc[nH]1)CC2 (stereo unspecified)	-1.7
O=C(NCc1ccoc1)NC1CCN(c2ncccn2)CC1	16.1
CN(C)C(=O)CN1CCCC1c1nccnc1Nc1ccccn1 (stereo unspecified)	-8.51
CCc1cnc(C)nc1N(C)CCCc1cnn(C)c1	-12.1
CCc1cc(CN(C)C(=O)C2CC(=O)N(c3cccc(O)c3)C2)on1 (stereo unspecified)	-1.3

SMILES	cytotoxicity at 70.5 h [%]
O=C(C1SCCc2sccc21)N1CCN(CC(F)F)CC1 (stereo unspecified)	-5.33
CSc1ccc(NC(=O)Cn2cc(N)cn2)cc1	-6.5
Cn1cc(Br)cc(NC(=O)CC2CCC2)c1=O	-6.41
Cc1ccccc1CCCN(Cc1ccccn1)S(C)(=O)=O	-0.248
CCCS(=O)(=O)c1ncc(CN2CCC(CO)CC2)n1CC1CCCO1 (stereo unspecified)	-4.07
COCCCN1CCN(CC2CCCO2)CC1 (stereo unspecified)	22.5
Cc1cccc2c(=O)n(C(C)Cc3cccnc3)cnc12 (stereo unspecified)	-8.06
Cc1ncsc1CCN(C)C(=O)CN1CCOc2ccccc2C1	0.856
NC(=O)CC1CCN(Cc2ccccc2OCC(F)(F)F)CC1	-8.22
Cc1nc(CN(Cc2ccccc2F)C2CCC2)no1	-3.66
Cc1cc(C(=O)N2CCCC(c3nccn3Cc3cscn3)C2)on1 (stereo unspecified)	-6.42
CC(C(=O)N1CCN(C)CC1)n1cc(Br)cn1 (stereo unspecified)	-1.37
CN(C)C(=O)CNC(=O)c1nc(C2CC2)n(-c2ccccc2Cl)n1	-13.7
Cc1cc(F)ccc1-c1ccccc1CC1CNCCNC1=O (stereo unspecified)	5.41
CC(=O)NCC(=O)N1CCn2cc(CN3CCCCC3)nc2C1	-1.68
Cc1ccccc1-c1noc(CN2CCOC(Cn3cccn3)C2)n1 (stereo unspecified)	-10.3
Cc1cc(C(=O)NCC2CCCO2)c(C)n1-c1cccnc1 (stereo unspecified)	-10.8
O=C(NC1(c2nccs2)CCCC1)c1cc(C2CC2)on1	-3.31
Cc1nonc1NC(=O)CCn1cc(Br)ccc1=O	6.64
CC(C)NC(=O)c1cc2c(nc1N(C)C)CCN(S(=O)(=O)C1CC1)CC2	7.69
COc1cc(CCC(=O)N2CCC(c3cc4ncc(C)nc4[nH]3)C2)on1 (stereo unspecified)	19.5
CCS(=O)(=O)c1ccccc1N1CCC(NC(C)=O)CC1	-4.79
CC(C)n1cc(S(=O)(=O)N2CCCC(N3CCCCC3)C2)cn1 (stereo unspecified)	-16.1
CC(=O)N1CCCC2(CCN(Cc3ccc(Cl)c(C(F)(F)F)c3)C2)C1 (stereo unspecified)	-5.69

SMILES	cytotoxicity at 70.5 h [%]
Cn1ncc2c1C(COCC1CC1)CN(C(=O)c1ccoc1)C2 (stereo unspecified)	14.1
CS(=O)(=O)NC(=O)c1ccn(-c2ccc(Cl)c(Cl)c2)n1	-3.09
COCCN(C)C[C@@H]1CN(C(=O)c2c(F)ccc(OC)c2F)C[C@@H]1CO	47.7
O=c1cc(Cn2cncn2)nc2n1CCCN(CC1CCOCC1)C2	-3.57
CS(=O)(=O)NCc1cccc(COC2CCCCC2)c1	-3.13
Cc1c(C(=O)NC(C)CC(=O)c2cccs2)cnn1C (stereo unspecified)	19.6
Cc1ccc(-c2nc(CN3CCn4c(C)nnc4C3)co2)cc1	-6.98
Cc1cc(C2CCCN2C(=O)NCc2cccnc2OC(C)C)on1 (stereo unspecified)	-9.53
CCc1ccc(CCC(=O)NCc2nnc[nH]2)cc1	-19.3
O=C(C[C@@H]1COC[C@H]2CN(C(=O)c3ccccn3)C[C@@H]12)N1CCCC1	1.42
CCc1ccccc1OC1CN(CC2CCOC2)C1 (stereo unspecified)	29.4
CCc1nc2ccccc2c(=O)n1CC1(O)CCNCC1	-11.1
CC(C)N1CC[C@H](c2nnc(Cc3c[nH]c4ccccc34)o2)C1	-4.41
CS(=O)(=O)N1CCOCC12CCN(Cc1ccc(F)cc1)CC2	-6.42
CCCc1nnc2sc(-c3cc(C(C)C)n[nH]3)nn12	15.4
Cc1cc(C(=O)N2CCCC(c3nncn3C)C2)no1 (stereo unspecified)	-5.95
CC(=O)Nc1sccc1C(=O)C(C)(C)C	16.1
CN(C)C(=O)Cc1nc(CN2CCOC(Cn3cccn3)C2)cs1 (stereo unspecified)	1.45
CC(C)C(=O)N1CCN(Cc2ccccn2)CC2(CC(=O)N(C)C2)C1 (stereo unspecified)	-9.37
CCc1ncc2c(n1)CN(Cc1nnc(C(C)C)o1)CC2	-99.6
CN1CC[C@@H]2[C@@H]1CCN2Cc1ccc2c(c1)OCO2	-9.96
N#CC(NC(=O)CCC1CCC1)c1cnn(-c2ccccc2)c1 (stereo unspecified)	17.3
O=C(CNc1ccc(OC2CCOC2)cc1)NCc1cccs1 (stereo unspecified)	-18.3
c1cc(-c2ccn(CCN3CCCC3)n2)cc(-c2nccs2)c1	-6.38

SMILES	cytotoxicity at 70.5 h [%]
Cc1cc(N2CCC(Cc3cccnc3)CC2)ncn1	23.3
CCN(CC)c1ncc2c(c1C(=O)O)CCN(C1CCOC1)C2 (stereo unspecified)	3.75
Cc1cnn(CC2CN(CC(=O)NCCc3cccs3)CCO2)c1 (stereo unspecified)	-2.04
COC1CCN(C(=O)c2nn(-c3ccc(C(C)C)cc3)cc2O)CC1	10.9
Cn1ccnc1CN1C(=O)CO[C@H]2CN(CCCc3ccccc3)C[C@H]21	-1.68
c1csc(CCNC2CCc3ncnn3C2)c1 (stereo unspecified)	0.839
O=C1CN(c2cc(-c3ccccc3F)nc3ccnn23)CCCN1	-14.6
O=C(c1cccc2cc[nH]c12)N1CCC2(CCOC2)C1 (stereo unspecified)	1.91
COc1ccc(S(=O)(=O)NC(=O)COC2CCCCC2)cc1C	-4.48
CC(C)c1nnsc1CNC(=O)C1CCN(C(=O)C2CCCC2)CC1	12
Fc1cnc(N2CC[C@@H](N3CCOCC3)[C@@H]2Cc2ccncc2)nc1	15.9
Cc1ccccc1OCCCC(=O)N(C)CCC#N	-5.57
Cc1ncsc1-c1nc(CC2CCN(C)CC2)nn1Cc1ccccc1	8.01
CCc1nnc(SC2CCN(c3ccccc3F)C2=O)n1C (stereo unspecified)	-2.9
CCOc1ccc(NC2CCN(CC(F)(F)F)C2=O)cc1C (stereo unspecified)	-5.71
CSCCCN1CC[C@@H](NC(=O)c2cnccn2)[C@H](O)C1	-10.8
Cc1cccc(CN2C[C@@H]3COC[C@]3(CNC(=O)c3ccsc3)C2)n1	-8.41
O=C(NCc1n[nH]c2c1CCCCC2)c1cnn2c1CCCC2	-12.2
N#Cc1ccc(CN2C(=O)c3ccccc3CS2(=O)=O)cc1	-1.6
O=C1CO[C@H]2CN(Cc3c[nH]c4ccccc34)C[C@H]2N1	7.73
